Patent publication US8859549B2, “Potassium channel modulators” (AbbVie, Inc., priority 2011, dated 2014)

Target: T1, KCNQ 2/3 channels (Homo sapiens, UniProt O43525+O43526)
T1 construct: expressed in transfected cells; host or cells: HEK293
Assay: KCNQ 2/3 channel activation, thallium flux FLIPR assay (BTC-AM dye)
Assay type: cell-based
Conditions: for Emax: HEK293, maximum response relative to the response of 10 μM retigabine (set at 100%), read-out: % MAX; for EC50: HEK293 cells stably expressing human KCNQ2 and KCNQ3 subunits, thallium-induced fluorescence, 4 min compound incubation
In short: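 HEK293 cells stably expressing human KCNQ2/KCNQ3 were loaded with BTC-AM (3 μg/mL, 2 h, RT) and preincubated with compound for 4 min in pH 7.3 gluconate buffer containing 0.1 mM ouabain. Flux was triggered by 6 mM TlNO3/10 mM K2SO4 and read for 3 min; EC50 came from summed responses over basal, with maximum relative to 10 μM retigabine (100%).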

## O=C(Cc1cccc2ccccc12)Nn1nc(N2CCOCC2)c2ccccc2c1=O [Example 165, N-[4-(morpholin-4-yl)-1-oxophthalazin-2(1H)-yl]-2-(naphthalen-1-yl)acetamide]
HEK293 KCNQ2/KCNQ3 cells
  Emax: 7.96%

## O=C(Cc1ccc2ccccc2c1)Nn1nc(N2CCOCC2)c2ccccc2c1=O [Example 166, N-[4-(morpholin-4-yl)-1-oxophthalazin-2(1H)-yl]-2-(naphthalen-2-yl)acetamide]
HEK293 KCNQ2/KCNQ3 cells
  Emax: 15.6%

## Cc1ccc(C)c(CC(=O)Nn2nc(N3CCOCC3)c3ccccc3c2=O)c1 [Example 167, 2-(2,5-dimethylphenyl)-N-[4-(morpholin-4-yl)-1-oxophthalazin-2(1H)-yl]acetamide]
HEK293 KCNQ2/KCNQ3 cells
  Emax: 3%

## Cc1cc(C)c(CC(=O)Nn2nc(N3CCOCC3)c3ccccc3c2=O)c(C)c1 [Example 168, N-[4-(morpholin-4-yl)-1-oxophthalazin-2(1H)-yl]-2-(2,4,6-trimethylphenyl)acetamide]
HEK293 KCNQ2/KCNQ3 cells
  Emax: 1.91%

## COc1cccc(CC(=O)Nn2nc(N3CCOCC3)c3ccccc3c2=O)c1OC [Example 169, 2-(2,3-dimethoxyphenyl)-N-[4-(morpholin-4-yl)-1-oxophthalazin-2(1H)-yl]acetamide]
HEK293 KCNQ2/KCNQ3 cells
  Emax: 23.6%

## COc1ccc(CC(=O)Nn2nc(N3CCOCC3)c3ccccc3c2=O)c(OC)c1 [Example 170, 2-(2,4-dimethoxyphenyl)-N-[4-(morpholin-4-yl)-1-oxophthalazin-2(1H)-yl]acetamide]
HEK293 KCNQ2/KCNQ3 cells
  Emax: 34.2%

## COc1ccc(CC(=O)Nn2nc(N3CCOCC3)c3ccccc3c2=O)cc1OC [Example 172, 2-(3,4-dimethoxyphenyl)-N-[4-(morpholin-4-yl)-1-oxophthalazin-2(1H)-yl]acetamide]
HEK293 KCNQ2/KCNQ3 cells
  Emax: 51.7%

## COc1cc(CC(=O)Nn2nc(N3CCOCC3)c3ccccc3c2=O)cc(OC)c1 [Example 173, 2-(3,5-dimethoxyphenyl)-N-[4-(morpholin-4-yl)-1-oxophthalazin-2(1H)-yl]acetamide]
HEK293 KCNQ2/KCNQ3 cells
  Emax: 33.9%

## O=C(Cc1ccc2c(c1)OCO2)Nn1nc(N2CCOCC2)c2ccccc2c1=O [Example 174, 2-(1,3-benzodioxol-5-yl)-N-[4-(morpholin-4-yl)-1-oxophthalazin-2(1H)-yl]acetamide]
HEK293 KCNQ2/KCNQ3 cells
  Emax: 18.7%

## O=C(Cc1cccc(F)c1F)Nn1nc(N2CCOCC2)c2ccccc2c1=O [Example 175, 2-(2,3-difluorophenyl)-N-[4-(morpholin-4-yl)-1-oxophthalazin-2(1H)-yl]acetamide]
HEK293 KCNQ2/KCNQ3 cells
  Emax: 17.3%

## O=C(Cc1cc(F)ccc1F)Nn1nc(N2CCOCC2)c2ccccc2c1=O [Example 176, 2-(2,5-difluorophenyl)-N-[4-(morpholin-4-yl)-1-oxophthalazin-2(1H)-yl]acetamide]
HEK293 KCNQ2/KCNQ3 cells
  Emax: 18%

## O=C(Cc1ccc(Cl)c(Cl)c1)Nn1nc(N2CCOCC2)c2ccccc2c1=O [Example 177, 2-(3,4-dichlorophenyl)-N-[4-(morpholin-4-yl)-1-oxophthalazin-2(1H)-yl]acetamide]
HEK293 KCNQ2/KCNQ3 cells
  Emax: 131%
  EC50: 0.628 µM

## O=C(Cc1c(Cl)cccc1Cl)Nn1nc(N2CCOCC2)c2ccccc2c1=O [Example 178, 2-(2,6-dichlorophenyl)-N-[4-(morpholin-4-yl)-1-oxophthalazin-2(1H)-yl]acetamide]
HEK293 KCNQ2/KCNQ3 cells
  Emax: -1.83%

## CS(=O)(=O)c1ccc(CC(=O)Nn2nc(Sc3ccccc3)c3ccccc3c2=O)cc1 [Example 181, 2-[4-(methylsulfonyl)phenyl]-N-[1-oxo-4-(phenylsulfanyl)phthalazin-2(1H)-yl]acetamide]
HEK293 KCNQ2/KCNQ3 cells
  Emax: 92.6%
  EC50: 5.18 µM

## CCC(C)(C)OC(=O)NCc1nn(NC(=O)Cc2ccc(Cl)cc2)c(=O)c2ccccc12 [Example 182, 2-methylbutan-2-yl[(3-{[(4-chlorophenyl)acetyl]amino}-4-oxo-3,4-dihydrophthalazin-1-yl)methyl]carbamate]
HEK293 KCNQ2/KCNQ3 cells
  Emax: 63.8%
  EC50: 1.32 µM

## COC(=O)N[C@H](C(=O)NCc1nn(NC(=O)Cc2ccc(Cl)cc2)c(=O)c2ccccc12)C(C)C [Example 183, methyl[(2S)-1-{[(3-{[(4-chlorophenyl)acetyl]amino}-4-oxo-3,4-dihydrophthalazin-1-yl)methyl]amino}-3-methyl-1-oxobutan-2-yl]carbamate]
HEK293 KCNQ2/KCNQ3 cells
  Emax: 5.96%

## CC(C)(C)COC(=O)NCc1nn(NC(=O)Cc2ccc(Cl)cc2)c(=O)c2ccccc12 [Example 184, 2,2-dimethylpropyl[(3-{[(4-chlorophenyl)acetyl]amino}-4-oxo-3,4-dihydrophthalazin-1-yl)methyl]carbamate]
HEK293 KCNQ2/KCNQ3 cells
  Emax: 62.7%
  EC50: 1.32 µM

## CC(C)COC(=O)NCc1nn(NC(=O)Cc2ccc(Cl)cc2)c(=O)c2ccccc12 [Example 185, 2-methylpropyl[(3-{[(4-chlorophenyl)acetyl]amino}-4-oxo-3,4-dihydrophthalazin-1-yl)methyl]carbamate]
HEK293 KCNQ2/KCNQ3 cells
  Emax: 44.6%
  EC50: 1.24 µM

## CC(C)[C@H]1CC[C@H](C)C[C@@H]1OC(=O)NCc1nn(NC(=O)Cc2ccc(Cl)cc2)c(=O)c2ccccc12 [Example 186, (1S,2R,5S)-5-methyl-2-(propan-2-yl)cyclohexyl[(3-{[(4-chlorophenyl)acetyl]amino}-4-oxo-3,4-dihydrophthalazin-1-yl)methyl]carbamate]
Maximum response relative to the response of 10 μM retigabine (set at 100%), HEK293 KCNQ2/KCNQ3 cells
  % MAX: 11.8%

## O=C(Cc1ccc(Cl)cc1)Nn1nc(CNC(=O)OC2CCCC2)c2ccccc2c1=O [Example 187, cyclopentyl[(3-{[(4-chlorophenyl)acetyl]amino}-4-oxo-3,4-dihydrophthalazin-1-yl)methyl]carbamate]
HEK293 KCNQ2/KCNQ3 cells
  Emax: 32%

## O=C(Cc1ccc(Cl)cc1)Nn1nc(CNC(=O)OCc2ccccc2)c2ccccc2c1=O [Example 188, benzyl[(3-{[(4-chlorophenyl)acetyl]amino}-4-oxo-3,4-dihydrophthalazin-1-yl)methyl]carbamate]
HEK293 KCNQ2/KCNQ3 cells
  Emax: 15.3%

## CS(=O)(=O)c1ccc(CC(=O)Nn2nc(S(=O)(=O)c3ccccc3)c3ccccc3c2=O)cc1 [Example 189, 2-[4-(methylsulfonyl)phenyl]-N-[1-oxo-4-(phenylsulfonyl)phthalazin-2(1H)-yl]acetamide]
HEK293 KCNQ2/KCNQ3 cells
  Emax: 37%

## O=C(Cc1ccc(Cl)cc1)Nn1nc(Sc2ccncc2)c2ccccc2c1=O [Example 191, 2-(4-chlorophenyl)-N-[1-oxo-4-(pyridin-4-ylsulfanyl)phthalazin-2(1H)-yl]acetamide]
HEK293 KCNQ2/KCNQ3 cells
  Emax: 78.5%
  EC50: 1.32 µM

## Cc1ccc(S(=O)(=O)c2nn(NC(=O)Cc3ccc(Cl)cc3)c(=O)c3ccccc23)cc1 [Example 192, 2-(4-chlorophenyl)-N-{4-[(4-methylphenyl)sulfonyl]-1-oxophthalazin-2(1H)-yl}acetamide]
HEK293 KCNQ2/KCNQ3 cells
  Emax: 103%
  EC50: 0.116 µM

## O=C(Cc1ccc(F)cc1)Nn1nc(S(=O)(=O)c2ccccc2)c2ccccc2c1=O [Example 193, 2-(4-fluorophenyl)-N-[1-oxo-4-(phenylsulfonyl)phthalazin-2(1H)-yl]acetamide]
HEK293 KCNQ2/KCNQ3 cells
  Emax: 87.9%
  EC50: 0.0792 µM

## CC(C)(CC(=O)Nn1nc(S(=O)(=O)c2ccccc2)c2ccccc2c1=O)c1ccccc1 [Example 194, 3-methyl-N-[1-oxo-4-(phenylsulfonyl)phthalazin-2(1H)-yl]-3-phenylbutanamide]
HEK293 KCNQ2/KCNQ3 cells
  Emax: 63.4%
  EC50: 1.78 µM

## O=C(Cc1ccc(Cl)cc1)Nn1nc(Sc2ccc(Br)cc2)c2ccccc2c1=O [Example 195, N-{4-[(4-bromophenyl)sulfanyl]-1-oxophthalazin-2(1H)-yl}-2-(4-chlorophenyl)acetamide]
HEK293 KCNQ2/KCNQ3 cells
  Emax: 96.9%
  EC50: 0.432 µM

## O=C(Cc1ccc(Cl)cc1)Nn1nc(S(=O)(=O)c2cc[n+]([O-])cc2)c2ccccc2c1=O [Example 196, 2-(4-chlorophenyl)-N-{4-[(1-oxidopyridin-4-yl)sulfonyl]-1-oxophthalazin-2(1H)-yl}acetamide]
HEK293 KCNQ2/KCNQ3 cells
  Emax: 16.6%

## O=C(Cc1cc(F)cc(F)c1)Nn1nc(Sc2ccc(Br)cc2)c2ccccc2c1=O [Example 197, N-{4-[(4-bromophenyl)sulfanyl]-1-oxophthalazin-2(1H)-yl}-2-(3,5-difluorophenyl)acetamide]
HEK293 KCNQ2/KCNQ3 cells
  Emax: 120%
  EC50: 0.049 µM

## CC(C)(C)Sc1nn(NC(=O)Cc2ccc(Cl)cc2)c(=O)c2ccccc12 [Example 198, N-[4-(tert-butylsulfanyl)-1-oxophthalazin-2(1H)-yl]-2-(4-chlorophenyl)acetamide]
HEK293 KCNQ2/KCNQ3 cells
  Emax: 120%
  EC50: 0.134 µM

## O=C(Cc1ccc(Cl)cc1)Nn1nc(S(=O)(=O)c2ccc(Br)cc2)c2ccccc2c1=O [Example 199, N-{4-[(4-bromophenyl)sulfonyl]-1-oxophthalazin-2(1H)-yl}-2-(4-chlorophenyl)acetamide]
HEK293 KCNQ2/KCNQ3 cells
  Emax: 79.2%
  EC50: 0.0489 µM

## CC(C)(C)S(=O)(=O)c1nn(NC(=O)Cc2ccc(Cl)cc2)c(=O)c2ccccc12 [Example 201, N-[4-(tert-butylsulfonyl)-1-oxophthalazin-2(1H)-yl]-2-(4-chlorophenyl)acetamide]
HEK293 KCNQ2/KCNQ3 cells
  Emax: 92.3%
  EC50: 0.738 µM

## O=C(Cc1cc(F)cc(F)c1)Nn1nc(S(=O)(=O)c2ccc(Br)cc2)c2ccccc2c1=O [Example 202, N-{4-[(4-bromophenyl)sulfonyl]-1-oxophthalazin-2(1H)-yl}-2-(3,5-difluorophenyl)acetamide]
HEK293 KCNQ2/KCNQ3 cells
  Emax: 106%
  EC50: 0.0647 µM

## O=C(Cc1ccc(Cl)cc1)Nn1nc(S(=O)(=O)c2ccncc2)c2ccccc2c1=O [Example 203, 2-(4-chlorophenyl)-N-[1-oxo-4-(pyridin-4-ylsulfonyl)phthalazin-2(1H)-yl]acetamide]
HEK293 KCNQ2/KCNQ3 cells
  Emax: 85%
  EC50: 0.621 µM

## COc1cccc(CC(=O)Nn2nc(S(=O)(=O)c3ccccc3)c3ccccc3c2=O)c1 [Example 205, 2-(3-methoxyphenyl)-N-[1-oxo-4-(phenylsulfonyl)phthalazin-2(1H)-yl]acetamide]
HEK293 KCNQ2/KCNQ3 cells
  Emax: 71.8%
  EC50: 0.938 µM

## O=C(Cc1ccc(Br)cc1)Nn1nc(S(=O)(=O)c2ccccc2)c2ccccc2c1=O [Example 206, 2-(4-bromophenyl)-N-[1-oxo-4-(phenylsulfonyl)phthalazin-2(1H)-yl]acetamide]
HEK293 KCNQ2/KCNQ3 cells
  Emax: 99.3%
  EC50: 0.0693 µM
